Counter-ions that a name gives are not always drawn. Like-named read-outs stand apart in the source and are kept apart here.
What was measured:
[1] = test system: HBV; conditions: results of some studies; cited from earlier work
[2] = molecular target: T1, HIV reverse transcriptase (Human immunodeficiency virus type 1 group M subtype B, UniProt P04585); experiment: In vitro inhibition test against HIV reverse transcriptase; format: biochemical; conditions: read-out: Inhibitory activity of HIV-RT (%)
T1 construct: purchased Boehringer Mannheim
Outline: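 Non-radioactive colorimetric kit assay: 40 ng HIV-RT with poly(A)/oligo(dT)15 template/primer plus DIG-dUTP, biotin-dUTP and TTP, incubated with compound 1 h at 37 °C. Product captured on streptavidin, detected with anti-DIG-POD and ABTS; A405 read, with activity compared to a no-compound control.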

[3] = molecular target: T2, HBV polymerase (Hepatitis B virus genotype D subtype ayw, UniProt P03156); experiment: Inhibitory activities against HBV polymerase (reverse transcriptase activity) in vitro; format: biochemical; conditions: read-out: Inhibitory activity of HBV-RT (%); for inhibition at 0.01 µg/mL: 0.01 μg/ml; for inhibition at 0.1 µg/mL: 0.1 μg/ml; for inhibition at 1 µg/mL: 1 μg/ml
T2 construct: made in house; host or cells: E. coli
T2 sequence (P03156 whole entry): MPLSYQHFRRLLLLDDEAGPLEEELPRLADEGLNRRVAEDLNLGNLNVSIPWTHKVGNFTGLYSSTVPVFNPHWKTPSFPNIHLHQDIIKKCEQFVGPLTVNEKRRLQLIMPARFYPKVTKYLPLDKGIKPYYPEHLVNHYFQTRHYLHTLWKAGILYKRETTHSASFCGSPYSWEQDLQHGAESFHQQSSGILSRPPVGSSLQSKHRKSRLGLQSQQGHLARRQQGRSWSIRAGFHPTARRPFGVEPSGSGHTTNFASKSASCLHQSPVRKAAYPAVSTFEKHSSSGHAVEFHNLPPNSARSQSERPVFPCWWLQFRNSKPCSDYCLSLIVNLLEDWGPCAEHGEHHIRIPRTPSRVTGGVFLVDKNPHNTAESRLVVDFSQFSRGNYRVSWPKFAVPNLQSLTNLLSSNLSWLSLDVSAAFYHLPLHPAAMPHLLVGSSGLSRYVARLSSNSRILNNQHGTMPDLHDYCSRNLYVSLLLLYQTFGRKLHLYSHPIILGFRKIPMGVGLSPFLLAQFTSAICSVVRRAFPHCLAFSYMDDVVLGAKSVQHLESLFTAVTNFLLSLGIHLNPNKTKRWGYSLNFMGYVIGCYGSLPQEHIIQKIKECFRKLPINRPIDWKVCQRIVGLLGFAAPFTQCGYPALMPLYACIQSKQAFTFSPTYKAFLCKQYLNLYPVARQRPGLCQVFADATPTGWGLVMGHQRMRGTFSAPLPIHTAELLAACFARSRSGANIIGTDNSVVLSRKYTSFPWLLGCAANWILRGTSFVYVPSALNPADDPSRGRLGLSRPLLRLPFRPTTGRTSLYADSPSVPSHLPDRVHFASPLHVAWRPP
Outline: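 Recombinant HBV polymerase expressed in E. coli was incubated with reaction mixture and test compound for 18~24 hours at 14° C.~30° C. Reverse transcriptase product, labelled with biotin- and DIG-modified nucleotide, detected ELISA-style with peroxidase anti-DIG antibody; inhibition judged relative to controls without compound.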

SMILES | suppressing the proliferation of HBV [1] | inhibition at 0.1 µg/mL ([2]; 0.1 μg/ml) [%] | inhibition at 1 µg/mL ([2]; 1 μg/ml) [%] | inhibition at 0.01 µg/mL [3] [%] | inhibition at 0.1 µg/mL [3] [%] | inhibition at 1 µg/mL [3] [%] | inhibition at 0.1 µg/mL [2] [%] | inhibition at 1 µg/mL [2] [%]
Nc1ccn([C@@H]2CS[C@H](CO)O2)c(=O)n1 [Lamivudine] | effective in suppressing the proliferation of HBV |  |  |  |  |  |  | 
CC(=O)OCC(CCn1cnc2cnc(N)nc21)COC(C)=O [Famvir] | effective in suppressing the proliferation of HBV |  |  |  |  |  |  | 
CC[C@H](CO)NC(=O)c1ccc(C(=O)N2CCN(CCO)CC2)nc1 [Exam. 94, 6-[1-(2-hydroxyethyl)piperazin-4-yl-carbonyl]-N-[(1R)-1-(hydroxymethyl)propyl]nicotinamide.HCl] |  | 30 | 62 | 20 | 51 | 72 |  | 
CC(C)Nc1cccnc1N1CCN(C(=O)c2ccc(C(=O)NC3CC3)cn2)CC1 [Exam. 35, 5-(N-cyclopropylcarbamoyl)-2-[1-[3-(isopropylamino)-2-pyridyl]piperazin-4-yl-carbonyl]pyridine] |  | 30 | 68 | 5 | 51 | 62 |  | 
COC(CNC(=O)c1ccc(C(=O)N2CCN(CCO)CC2)nc1)OC [Exam. 101, N-(2,2-dimethoxyethyl)-6-[1-(2-hydroxyethyl)piperazin-4-yl-carbonyl]nicotinamide] |  |  |  | 55 | 63 | 85 | 41 | 56
CC(C)Nc1cccnc1N1CCN(C(=O)c2ccc(C(=O)NC3CCOC3=O)cn2)CC1 (stereo not shown) [Exam. 55, 2-[1-[3-(Isopropylamino)-2-pyridyl]piperazin-4-yl-carbonyl]-5-[N-(tetrahydro-2-fuanon-3-yl)carbamoyl]pyridine] |  | 31 | 62 | 55 | 69 | 79 |  | 
CCN(CC)C(=O)c1ccc(C(=O)N2CCN(c3ncccc3NC(C)C)CC2)nc1 [Exam. 33, 5-(N,N-diethylcarbamoyl)-2-[1-[3-(isopropylamino)-2-pyridyl]piperazin-4-yl-carbonyl]pyridine] |  | 64 | 80 | 20 | 62 | 73 |  | 
COCCNC(=O)c1ccc(C(=O)N2CCN(CCO)CC2)nc1 [Exam. 98, 6-[1-(2-hydroxyethyl)piperazin-4-yl-carbonyl]-N-(2-methoxyethyl)nicotinamide.HCl] |  | 61 | 76 | 57 | 70 | 85 |  | 
COc1ccc(NC(=O)c2ccc(C(=O)N3CCN(c4ncccc4NC(C)C)CC3)nc2)cn1 [Exam. 71, 6-[1-[3-(isopropylamino)-2-pyridyl]piperazin-4-yl-carbonyl]-N-(6-methoxy-3-pyridyl)nicotinamide] |  | 48 | 74 | 59 | 70 | 83 |  | 
CC(C)NC(=O)c1ccc(C(=O)N2CCN(CCO)CC2)nc1 [Exam. 87, 6-[1-(2-hydroxyethyl)piperazin-4-yl-carbonyl]-N-isopropylnicotinamide.HCl] |  | 60 | 81 | 52 | 58 | 75 |  | 
CC(C)Nc1cccnc1N1CCN(C(=O)c2ccc(C(=O)N(CCO)CCO)cn2)CC1 [Exam. 16, 5-[N,N-bis(2-hydroxyethyl)carbamoyl]-2-[1-[3-(isopropylamino)-2-pyridyl]piperazin-4-yl-carbonyl]pyridine] |  | 47 | 68 | 51 | 60 | 70 |  | 
CC(C)CNC(=O)c1ccc(C(=O)N2CCN(CCO)CC2)nc1 [Exam. 88, 6-[1-(2-hydroxyethyl)piperazin-4-yl-carbonyl]-N-isobutylnicotinamide.HCl] |  | 50 | 70 | 55 | 67 | 81 |  | 
CCNc1cccnc1N1CCN(C(=O)c2ccc(C(=O)NCc3ccccn3)cn2)CC1 [Exam. 74, 6-[1-[3-(ethylamino)-2-pyridyl]piperazin-4-yl-carbonyl]-N-(2-pyridylmethyl)nicotinamide] |  | 61 | 80 | 19 | 56 | 70 |  | 
CC(C)Nc1cccnc1N1CCN(C(=O)c2ccc(C(=O)NCc3ccccn3)cn2)CC1 [Exam. 73, 6-[1-[3-(isopropylamino)-2-pyridyl]piperazin-4-yl-carbonyl]-N-(2-pyridylmethyl)nicotinamide.HCl] |  | 57 | 73 | 53 | 62 | 77 |  | 
CC(C)CNc1cccnc1N1CCN(C(=O)c2ccc(C(=O)NC3CC3)cn2)CC1 [Exam. 36] |  | 60 | 73 | 60 | 71 | 87 |  | 

Source: patent US6306860A, “2,5-pyridinedicarboxylic acid derivatives” (Dong Wha Pharm. Inc. Co., Ltd., priority 1998, dated 2001)
